Measured values from PubChem BioAssay AID248 (DTP/NCI, 2004).
Where “and” joins values, the source holds several entries; their conditions need not be identical. Equal entries are not always repeated. Toxic doses and inconclusive results are not listed.

Test system: L1210 leukemia ip in BDF1 mice, survival T/C
Assay: NCI In Vivo Anticancer Drug Screen. Data for tumor model L1210 Leukemia (intraperitoneal) in B6D2F1 (BDF1) mice
Details: endpoint: mean survival time, higher = longer survival
How it was run: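 Each compound was tested against a transplantable tumor grown in mice. The endpoint was survival, with treated animals benchmarked against vehicle controls as a simple ratio.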

[1] = dose: 100.0 mg/kg/injection, schedule: Q01DX001 (ip), vehicle: saline
[2] = dose: 200.0 mg/kg/injection, schedule: Q01DX001 (ip), vehicle: saline
[3] = dose: 400.0 mg/kg/injection, schedule: Q01DX001 (ip), vehicle: saline
[4] = dose: 100.0 mg/kg/injection, schedule: Q01DX009 (ip), vehicle: saline with Tween-80
[5] = dose: 100.0 mg/kg/injection, schedule: Q04DX003 (ip), vehicle: saline with Tween-80
[6] = dose: 200.0 mg/kg/injection, schedule: Q01DX009 (ip), vehicle: saline with Tween-80
[7] = dose: 200.0 mg/kg/injection, schedule: Q04DX003 (ip), vehicle: saline with Tween-80
[8] = dose: 400.0 mg/kg/injection, schedule: Q01DX009 (ip), vehicle: saline with Tween-80
[9] = dose: 400.0 mg/kg/injection, schedule: Q04DX003 (ip), vehicle: saline with Tween-80
[10] = dose: 25.0 mg/kg/injection, schedule: Q01DX009 (ip), vehicle: saline with Tween-80
[11] = dose: 50.0 mg/kg/injection, schedule: Q01DX009 (ip), vehicle: saline with Tween-80
[12] = dose: 50.0 mg/kg/injection, schedule: Q04DX002 (ip), vehicle: saline
[13] = dose: 100.0 mg/kg/injection, schedule: Q04DX002 (ip), vehicle: saline
[14] = dose: 200.0 mg/kg/injection, schedule: Q04DX002 (ip), vehicle: saline
[15] = dose: 100.0 mg/kg/injection, schedule: Q01DX009 (ip), vehicle: Klucel (hydroxypropylcellulose) (HPC)
[16] = dose: 200.0 mg/kg/injection, schedule: Q01DX009 (ip), vehicle: Klucel (hydroxypropylcellulose) (HPC)

In the case of `CCCCCCCCN(C)N=Nc1ccc(C(N)=O)cc1`, the T/C (dose: 118.0 mg/kg/injection, schedule: Q01DX009 (ip), vehicle: Klucel (hydroxypropylcellulose) (HPC)) is reported as 122 % of control and the T/C (dose: 175.0 mg/kg/injection, schedule: Q01DX009 (ip), vehicle: Klucel (hydroxypropylcellulose) (HPC)) is reported as 115 % of control.

With `C/C(=C\c1ccccc1)c1ccccc1` the T/C (dose: 50.0 mg/kg/injection, schedule: Q01DX001 (ip), vehicle: saline) was 91 % of control, the T/C [1] was 97 % of control and the T/C [2] was 95 % of control. For the same molecule, the T/C [3] was 101 % of control.

In the case of `COC1C(O)C(CO)OC1n1cnc2c(=S)nc(N)[nH]c21` (centres undefined), the T/C (dose: 266.0 mg/kg/injection, schedule: Q01DX001 (ip), vehicle: carboxymethylcellulose (CMC)) is reported as 153 % of control, the T/C (dose: 400.0 mg/kg/injection, schedule: Q01DX001 (ip), vehicle: carboxymethylcellulose (CMC)) is reported as 157 % of control and the T/C (dose: 600.0 mg/kg/injection, schedule: Q01DX001 (ip), vehicle: carboxymethylcellulose (CMC)) is reported as 153 % of control.

With `CC(=O)Cc1cc(C)nc(/N=C(\N)N2CCCCC2)n1` the T/C (dose: 100.0 mg/kg/injection, schedule: Q04DX002 (ip), vehicle: Klucel (hydroxypropylcellulose) (HPC)) was 92 % of control, the T/C (dose: 200.0 mg/kg/injection, schedule: Q04DX002 (ip), vehicle: Klucel (hydroxypropylcellulose) (HPC)) was 103 % of control and the T/C (dose: 400.0 mg/kg/injection, schedule: Q04DX002 (ip), vehicle: Klucel (hydroxypropylcellulose) (HPC)) was 96 % of control.

With `Cc1nc(C(N)=O)c(=O)[nH]c1C` the T/C (dose: 6.25 mg/kg/injection, schedule: Q04DX003 (ip), vehicle: saline) was 95 % of control, the T/C (dose: 12.5 mg/kg/injection, schedule: Q04DX003 (ip), vehicle: saline) was 97 % of control and the T/C (dose: 25.0 mg/kg/injection, schedule: Q04DX003 (ip), vehicle: saline) was 94 % of control. For the same molecule, the T/C (dose: 50.0 mg/kg/injection, schedule: Q04DX003 (ip), vehicle: saline) was 101 % of control, the T/C (dose: 100.0 mg/kg/injection, schedule: Q04DX003 (ip), vehicle: Klucel (hydroxypropylcellulose) (HPC)) was 102 % of control and the T/C (dose: 200.0 mg/kg/injection, schedule: Q04DX003 (ip), vehicle: Klucel (hydroxypropylcellulose) (HPC)) was 100 % of control. The T/C (dose: 400.0 mg/kg/injection, schedule: Q04DX003 (ip), vehicle: Klucel (hydroxypropylcellulose) (HPC)) was 100 % of control.

`C1=Cc2cccc3c2N(C1)CCC3` (tested in a mixture with another compound) was tested, and the T/C [4] was 103 % of control, the T/C [5] was 109 % of control and the T/C [6] was 107 % of control. For the same molecule, the T/C [7] was 93 % of control, the T/C [8] was 95 % of control and the T/C [9] was 98 % of control.

With `C(=Nc1ccc(-c2ccccc2)cc1)c1ccccc1` the T/C [10] was 105 % of control, the T/C [11] was 97 % of control and the T/C [4] was 92 % of control.

`CC(=O)OCC1OC(Oc2c(Br)cc(Br)cc2Br)C(OC(C)=O)C(OC(C)=O)C1OC(C)=O` (centres undefined) was tested, and the T/C [5] was 96 % of control, the T/C [7] was 101 % of control and the T/C [9] was 95 % of control.

In the case of `O=C(c1ccccc1)c1ccc(-c2ccccc2)cc1`, the T/C (dose: 87.5 mg/kg/injection, schedule: Q04DX003 (ip), vehicle: Klucel (hydroxypropylcellulose) (HPC)) is reported as 97 % of control, the T/C (dose: 175.0 mg/kg/injection, schedule: Q04DX003 (ip), vehicle: Klucel (hydroxypropylcellulose) (HPC)) is reported as 95 % of control and the T/C (dose: 350.0 mg/kg/injection, schedule: Q04DX003 (ip), vehicle: Klucel (hydroxypropylcellulose) (HPC)) is reported as 97 % of control.

`CN1CCN(Cc2cc(C(C)(C)C)cc(-c3ccccc3)c2O)CC1` was tested, and the T/C (dose: 100.0 mg/kg/injection, schedule: Q04DX003 (ip), vehicle: saline) was 92 % of control, the T/C (dose: 200.0 mg/kg/injection, schedule: Q04DX003 (ip), vehicle: saline) was 102 % of control and the T/C (dose: 400.0 mg/kg/injection, schedule: Q04DX003 (ip), vehicle: saline) was 110 % of control.

With `COc1cc(C=Nc2ccc(-n3ccnc3C)cc2)ccc1N(CCCl)CCCl` the T/C (dose: 1.0 mg/kg/injection, schedule: Q01DX009 (ip), vehicle: Klucel (hydroxypropylcellulose) (HPC)) was 110 % of control, the T/C (dose: 2.0 mg/kg/injection, schedule: Q01DX009 (ip), vehicle: Klucel (hydroxypropylcellulose) (HPC)) was 114 % of control and the T/C (dose: 2.5 mg/kg/injection, schedule: Q01DX009 (ip), vehicle: Klucel (hydroxypropylcellulose) (HPC)) was 104 % of control and 106 % of control. The T/C (dose: 3.8 mg/kg/injection, schedule: Q01DX009 (ip), vehicle: Klucel (hydroxypropylcellulose) (HPC)) was 104 % of control, the T/C (dose: 5.0 mg/kg/injection, schedule: Q01DX009 (ip), vehicle: Klucel (hydroxypropylcellulose) (HPC)) was 114 % of control and the T/C (dose: 8.8 mg/kg/injection, schedule: Q04DX003 (ip), vehicle: Klucel (hydroxypropylcellulose) (HPC)) was 98 % of control and 123 % of control. For the same molecule, the T/C (dose: 19.0 mg/kg/injection, schedule: Q01DX009 (ip), vehicle: Klucel (hydroxypropylcellulose) (HPC)) was 110 % of control, the T/C (dose: 20.0 mg/kg/injection, schedule: Q01DX009 (ip), vehicle: Klucel (hydroxypropylcellulose) (HPC)) was 124 % of control and the T/C (dose: 29.0 mg/kg/injection, schedule: Q04DX003 (ip), vehicle: Klucel (hydroxypropylcellulose) (HPC)) was 102 % of control. The T/C (dose: 30.0 mg/kg/injection, schedule: Q04DX003 (ip), vehicle: Klucel (hydroxypropylcellulose) (HPC)) was 104 % of control.

For `CCOC(=O)NN(C(=O)OCC)C1COCCO1` (centres undefined), the T/C [12] was 98 % of control, the T/C [13] was 103 % of control and the T/C [14] was 103 % of control.

For `NC(=S)N/N=C/c1ccc(Br)cn1`, the T/C (dose: 6.25 mg/kg/injection, schedule: Q01DX009 (ip), vehicle: saline with Tween-80) was 117 % of control and the T/C (dose: 12.5 mg/kg/injection, schedule: Q01DX009 (ip), vehicle: saline with Tween-80) was 113 % of control.

With `Cc1ccccc1OCC(O)COC(N)=O` (centres undefined) the T/C (dose: 0.62 mg/kg/injection, schedule: Q04DX003 (ip), vehicle: saline) was 100 % of control, the T/C (dose: 1.25 mg/kg/injection, schedule: Q04DX003 (ip), vehicle: saline) was 100 % of control and the T/C (dose: 2.5 mg/kg/injection, schedule: Q04DX003 (ip), vehicle: saline) was 112 % of control. For the same molecule, the T/C (dose: 5.0 mg/kg/injection, schedule: Q04DX003 (ip), vehicle: saline) was 98 % of control and the T/C (dose: 10.0 mg/kg/injection, schedule: Q04DX003 (ip), vehicle: saline) was 98 % of control.

`Cc1cc(NC(=O)C(=O)Nc2cc(C)on2)no1` was tested, and the T/C [15] was 93 % of control, the T/C [16] was 100 % of control and the T/C (dose: 400.0 mg/kg/injection, schedule: Q01DX009 (ip), vehicle: Klucel (hydroxypropylcellulose) (HPC)) was 93 % of control.

`O=C(Cc1c[nH]c2ccccc12)N=Nc1c(O)[nH]c2ccccc12` was tested, and the T/C (dose: 100.0 mg/kg/injection, schedule: Q01DX001 (ip), vehicle: other) was 102 % of control, the T/C (dose: 200.0 mg/kg/injection, schedule: Q01DX001 (ip), vehicle: other) was 101 % of control and the T/C (dose: 400.0 mg/kg/injection, schedule: Q01DX001 (ip), vehicle: other) was 93 % of control.

`CCOCCOCCOC(C)Oc1ccccc1` (centres undefined) was tested, and the T/C [13] was 104 % of control, the T/C [14] was 111 % of control and the T/C (dose: 400.0 mg/kg/injection, schedule: Q04DX002 (ip), vehicle: saline) was 104 % of control.

For `Cc1cn(C2CC(O)C(COP(=O)(N3CC3(C)C)N3CC3(C)C)O2)c(=O)[nH]c1=O` (centres undefined), the T/C [12] was 94 % of control, the T/C [13] was 105 % of control and the T/C [14] was 123 % of control.

In the case of `Cc1c(-c2ccccc2)n(O)[n+]([O-])c1-c1ccccc1`, the T/C (dose: 50.0 mg/kg/injection, schedule: Q01DX009 (ip), vehicle: Klucel (hydroxypropylcellulose) (HPC)) is reported as 98 % of control, the T/C [15] is reported as 94 % of control and the T/C [16] is reported as 94 % of control.

In the case of `CC1(C)CC(C)(c2ccc(-n3c(-c4ccccc4)nc4ccccc4c3=O)cc2)c2ccccc2S1` (centres undefined), the T/C [1] is reported as 91 % of control, the T/C [2] is reported as 91 % of control and the T/C [3] is reported as 87 % of control.

For `c1cnc(OCCN2CC2)nc1`, the T/C (dose: 25.0 mg/kg/injection, schedule: Q01DX001 (ip), vehicle: carboxymethylcellulose (CMC)) was 93 % of control and the T/C (dose: 50.0 mg/kg/injection, schedule: Q01DX001 (ip), vehicle: carboxymethylcellulose (CMC)) was 95 % of control.

In the case of `N#CCn1c(C(F)(F)F)nc2nc(Cl)c(Cl)nc21`, the T/C [10] is reported as 98 % of control, the T/C [11] is reported as 98 % of control and the T/C [4] is reported as 96 % of control. For the same molecule, the T/C [5] was 98 % of control.

For `O=C(COc1ccc(Cl)cc1)c1ccccc1`, the T/C [4] was 99 % of control, the T/C [6] was 87 % of control and the T/C [8] was 100 % of control.
